The source of these data is patent publication US6783949B1, “Processes for determining whether a test substance contains lipases or lipase inhibitors” (Aventis Pharma Deutschland GmbH, priority 1999, dated 2004).

The target of this assay is T1, LPL from rat adipocytes (Rattus norvegicus, UniProt Q06000).
T1 construct: 75 μg of partially purified LPL from rat adipocytes; from tissue; host or cells: rat adipocytes
T1 sequence (Q06000 28-474): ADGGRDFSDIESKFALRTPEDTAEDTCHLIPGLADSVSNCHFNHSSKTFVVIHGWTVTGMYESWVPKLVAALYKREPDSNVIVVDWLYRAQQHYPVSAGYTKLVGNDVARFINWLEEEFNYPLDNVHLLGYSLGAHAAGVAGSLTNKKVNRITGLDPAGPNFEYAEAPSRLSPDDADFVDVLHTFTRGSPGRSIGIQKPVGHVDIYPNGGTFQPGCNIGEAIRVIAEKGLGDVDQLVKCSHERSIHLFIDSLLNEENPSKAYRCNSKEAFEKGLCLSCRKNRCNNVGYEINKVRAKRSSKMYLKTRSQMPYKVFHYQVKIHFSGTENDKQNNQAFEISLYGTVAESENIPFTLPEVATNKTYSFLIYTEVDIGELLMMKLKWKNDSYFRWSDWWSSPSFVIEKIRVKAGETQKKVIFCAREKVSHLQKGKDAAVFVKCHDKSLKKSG
Nature of the assay: Cleavage of NAG by LPL. In kind it is biochemical. As to conditions: for Increase in the absorption at 481 nm: 60 min, NAG 0.05 mg/ml.

For the compound `O=C(CCCCCCCCCCCNc1ccc([N+](=O)[O-])c2nonc12)OCC(O)CO` (centres unmarked) [Compound (3)], under “conditions optimized for HSL”, the “Activity relative to HSL” value is reported as roughly 70%. Besides, the “Increase in the absorption at 481 nm” value (enzyme 10 arb. units) is 105 ± 14 arb. units; the “Increase in the absorption at 481 nm” value (enzyme 20 arb. units) was determined as 187 ± 17 arb. units; the “Increase in the absorption at 481 nm” value (enzyme 50 arb. units) was found to be 489 ± 31 arb. units; the “Increase in the absorption at 481 nm” value (enzyme 75 arb. units) was 773 ± 56 arb. units; the “Increase in the absorption at 481 nm” value (enzyme 100 arb. units) turned out to be 948 ± 72 arb. units; the “Increase in the absorption at 481 nm” value (enzyme 150 arb. units) is recorded as 1487 ± 132 arb. units. The “Increase in the absorption at 481 nm” value is on record as 1952 ± 173 arb. units (enzyme 200 arb. units), 2638 ± 213 arb. units (enzyme 250 arb. units), 2945 ± 250 arb. units (enzyme 300 arb. units) and 3512 ± 288 arb. units (enzyme 400 arb. units).
